According to patent US8247211B2, “Glycopeptide antibiotics” (American Cyanamid Company, priority 2001, dated 2012):
Values after ≈ are worked out from the molar mass of the structure shown.

Columns and labels:
Assay in all cases: In vitro antibacterial evaluation: minimum inhibitory concentration (MIC), broth dilution method
Type in all cases: cell-based
[1] = tested on: Enterococcus sp.; conditions: 18 hours at 35° C.
Method in brief: (§1)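 NCCLS M7-A2 broth dilution with Mueller-Hinton II, testing 64-0.06 μg/mL antibiotic against 5×10^5 CFU/mL inocula. Test strains include recent methicillin-, penicillin- or vancomycin-resistant clinical isolates. MIC is the lowest concentration preventing growth.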

[2] = tested on: Escherichia coli; conditions: 18 hours at 35° C.
Method in brief: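 Test strains, among them recent clinical isolates carrying methicillin, penicillin and/or vancomycin resistance, were inoculated at 5×10^5 CFU/mL. A broth dilution series spanning 64-0.06 μg/mL in Muller-Hinton II […] (NCCLS M7-A2) defined the MIC as the lowest growth-inhibiting concentration.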

[3] = tested on: Staphylococcus sp.
Method in brief: as §1

[4] = tested on: Streptococcus sp.; conditions: 18 hours at 35° C.
Method in brief: as §1

[5] = broth dilution, inoculum 5×10^5 CFU/mL

- MIC Enterococcus avium (GC 4558) ([1]; Enterococcus avium (GC 4558)): 1 µg/mL (≈ 0.699 µM)
- MIC Enterococcus faecalis (ATCC 29212) ([1]; Enterococcus faecalis (ATCC 29212)): 4 µg/mL (≈ 2.79 µM)
- MIC Enterococcus faecalis (GC 2242) ([1]; Enterococcus faecalis (GC 2242)): 4 µg/mL (≈ 2.79 µM)
- MIC Enterococcus faecalis (GC 2691) ([1]; Enterococcus faecalis (GC 2691)): 2 µg/mL (≈ 1.4 µM)
- MIC Enterococcus faecalis (GC 3059) ([1]; Enterococcus faecalis (GC 3059)): 2 µg/mL (≈ 1.4 µM)
- MIC Enterococcus faecalis (GC 4552) ([1]; Enterococcus faecalis (GC 4552)): 4 µg/mL (≈ 2.79 µM)
- MIC Enterococcus faecalis (GC 4553) ([1]; Enterococcus faecalis (GC 4553)): 4 µg/mL (≈ 2.79 µM)
- MIC Enterococcus faecalis (GC 4554) ([1]; Enterococcus faecalis (GC 4554)): 4 µg/mL (≈ 2.79 µM)
- MIC Enterococcus faecalis (GC 6189) ([1]; Enterococcus faecalis (GC 6189)): 2 µg/mL (≈ 1.4 µM)
- MIC Enterococcus faecium (GC 2243) ([1]; Enterococcus faecium (GC 2243)): 4 µg/mL (≈ 2.79 µM)
- MIC Enterococcus faecium (GC 4556) ([1]; Enterococcus faecium (GC 4556)): 4 µg/mL (≈ 2.79 µM)
- MIC Enterococcus faecium (GC 4557) ([1]; Enterococcus faecium (GC 4557)): 2 µg/mL (≈ 1.4 µM)
- MIC Enterococcus avium (GC 4558) [1, 5]: 1 µg/mL (≈ 0.699 µM)
- MIC Enterococcus faecalis (ATCC 29212) [1, 5]: 4 µg/mL (≈ 2.79 µM)
- MIC Enterococcus faecalis (GC 2242) [1, 5]: 4 µg/mL (≈ 2.79 µM)
- MIC Enterococcus faecalis (GC 2691) [1, 5]: 2 µg/mL (≈ 1.4 µM)
- MIC Enterococcus faecalis (GC 3059) [1, 5]: 2 µg/mL (≈ 1.4 µM)
- MIC Enterococcus faecalis (GC 4552) [1, 5]: 4 µg/mL (≈ 2.79 µM)
- MIC Enterococcus faecalis (GC 4553) [1, 5]: 4 µg/mL (≈ 2.79 µM)
- MIC Enterococcus faecalis (GC 4554) [1, 5]: 4 µg/mL (≈ 2.79 µM)
- MIC Enterococcus faecalis (GC 6189) [1, 5]: 2 µg/mL (≈ 1.4 µM)
- MIC Enterococcus faecium (GC 2243) [1, 5]: 4 µg/mL (≈ 2.79 µM)
- MIC Enterococcus faecium (GC 4556) [1, 5]: 4 µg/mL (≈ 2.79 µM)
- MIC Enterococcus faecium (GC 4557) [1, 5]: 2 µg/mL (≈ 1.4 µM)
- MIC Escherichia coli (ATCC 25922) ([2]; Escherichia coli (ATCC 25922)): 32 µg/mL (≈ 22.4 µM)
- MIC Escherichia coli (GC 4559) ([2]; Escherichia coli (GC 4559)): 64 µg/mL (≈ 44.7 µM)
- MIC Escherichia coli (GC 4560) ([2]; Escherichia coli (GC 4560)): 2 µg/mL (≈ 1.4 µM)
- MIC Staphylococcus aureus (ATCC 29213) ([3]; strain ATCC 29213): 1 µg/mL (≈ 0.699 µM)
- MIC Staphylococcus aureus (GC 1131) ([3]; strain GC 1131): 2 µg/mL (≈ 1.4 µM)
- MIC Staphylococcus aureus (GC 3051) ([3]; strain GC 3051): 2 µg/mL (≈ 1.4 µM)
- MIC Staphylococcus aureus (GC 3053) ([3]; strain GC 3053): 1 µg/mL (≈ 0.699 µM)
- MIC Staphylococcus aureus (GC 4541) ([3]; strain GC 4541): 1 µg/mL (≈ 0.699 µM)
- MIC Staphylococcus aureus (GC 4542) ([3]; strain GC 4542): 1 µg/mL (≈ 0.699 µM)
- MIC Staphylococcus aureus-SMITH (GC 4543) ([3]; strain GC 4543): 1 µg/mL (≈ 0.699 µM)
- MIC Staphylococcus aureus (GC 4544) ([3]; strain GC 4544): 1 µg/mL (≈ 0.699 µM)
- MIC Staphylococcus aureus (GC 4545) ([3]; strain GC 4545): 1 µg/mL (≈ 0.699 µM)
- MIC Coagulase Negative Staphylococcus (GC 4547) ([3]; strain GC 4547): 1 µg/mL (≈ 0.699 µM)
- MIC Coagulase Negative Staphylococcus (GC 4548) ([3]; strain GC 4548): 0.5 µg/mL (≈ 0.349 µM)
- MIC Coagulase Negative Staphylococcus (GC 4549) ([3]; strain GC 4549): 0.5 µg/mL (≈ 0.349 µM)
- MIC Coagulase Negative Staphylococcus (GC 4551) ([3]; strain GC 4551): 4 µg/mL (≈ 2.79 µM)
- MIC Streptococcus agalactiae (GC 4564) ([4]; Streptococcus agalactiae (GC 4564)): <0.12 µg/mL
- MIC Streptococcus pneumoniae (ATCC 6301) ([4]; Streptococcus pneumoniae (ATCC 6301)): <0.12 µg/mL
- MIC Streptococcus pneumoniae (GC 1894) ([4]; Streptococcus pneumoniae (GC 1894)): <0.12 µg/mL
- MIC Streptococcus pneumoniae (GC 4565) ([4]; Streptococcus pneumoniae (GC 4565)): <0.12 µg/mL
- MIC Streptococcus pyogenes (GC 4563) ([4]; Streptococcus pyogenes (GC 4563)): <0.12 µg/mL
- MIC Streptococcus agalactiae (GC 4564) [4, 5]: <0.12 µg/mL
- MIC Streptococcus pneumoniae (ATCC 6301) [4, 5]: <0.12 µg/mL
- MIC Streptococcus pneumoniae (GC 1894) [4, 5]: <0.12 µg/mL
- MIC Streptococcus pneumoniae (GC 4565) [4, 5]: <0.12 µg/mL
- MIC Streptococcus pyogenes (GC 4563) [4, 5]: <0.12 µg/mL
SMILES: CC(c1ccccc1)C1NC(=O)CNC(=O)C(CO)NC(=O)C(C(O)C2CNC(=N)N2C2OC(CO)C(O)C(O)C2O)NC(=O)C(C(O)C2CNC(=N)N2)NC(=O)C(Cc2ccc(OC3OC(CO)C(OC4OC5COC6(CC(C)(C)CC(C)(C)C6)OC5C(O)C4O)C(O)C3O)cc2)NC1=O (stereo not drawn) [Example 207, Cyclo[glycyl-β-methylphenylalanyl-O-[4-O-[4,6-O-(3,3,5,5-tetramethylcyclohexylidene)hexopyranosyl]hexopyranosyl]tyrosyl-3-(2-iminoimidazolidin-4-yl)seryl-3-(3-hexopyranosyl-2-iminoimidazolidin-4-yl)serylseryl]]
- MIC Staphylococcus haemolyticus (GC 4546) ([3]; strain GC 4546): 1 µg/mL (≈ 0.699 µM)
